Here are results for 15 molecules from patent US11708367B2, “Compounds for the treatment of kinase-dependent disorders” (Exelixis, Inc., priority 2018, dated 2023).

Format in all cases: cell-based
For one test, the target named is KDR (Homo sapiens (Human), UniProt P35968). The test can be described thus: KDR autophosphorylation ELISA in HUVEC cells. The settings on record: cellular, VEGF165-stimulated, phospho-KDR ELISA. Here is the method:
Human umbilical vein endothelial cells or HUVEC (Lonza #C2519A) were seeded at 2×10^4 cells/well onto 96-well plates (Corning #3904), in EGM-2 growth medium (Lonza #CC-3162) containing 1% Penicillin Streptomycin (Thermo Fisher #15140-122). HUVEC cells were incubated at 37° C., 5% CO2 for 24 h and then starved for 24 h in serum-free EBM-2 basal medium (Lonza #CC-3156) containing 1% Penicillin Streptomycin. Test compounds were serially diluted to produce an 8-point dose curve in fresh serum-free medium to a final concentration of 0.3% DMSO (vehicle) and added to the cells and incubated for 1 h. Cells were then stimulated with 100 ng/mL recombinant human VEGF165 (R&D Systems #293-VE-500) for 5 min, washed with cold PBS, and immediately lysed with 130 μL of cold 1× lysis buffer [20 mM Tris, 137 mM sodium chloride, 2 mM EDTA, 10% glycerol, 1% NP-40 alternative, 1 mM activated sodium orthovanadate, 1 mM PefaBloc SC (Sigma-Aldrich #11429868001), protease/phosphatase inhibitor tablet (Thermo Fisher #A32959)]. Lysates were collected and 100 μL/well added into the human phospho-KDR Duo Set IC ELISA (R&D Systems #DYC 1766-2). Assay was performed according to manufacturer's instructions and sample phospho-KDR concentrations were extrapolated using human phospho-KDR control (R&D Systems #841421) as a standard. Positive control wells (100% activity) contained VEGF165-stimulated, DMSO-treated cell lysates. Negative control wells (0% activity) contained non-stimulated cell lysates. IC50 values were calculated by nonlinear regression analysis using a 4-parameter logistic curve fit in ActivityBase XE (IDBS).

A further test addresses Met (Homo sapiens (Human), UniProt P08581). Description: Met autophosphorylation ELISA in PC-3 cells. Conditions: cellular, HGF-stimulated, phospho-Met ELISA, read-out: c-Met IC50. Here is the method:
PC-3 prostate cancer cells (ATCC #CRL-1435) were seeded at 4×10^4 cells/well onto 24-well plates (Greiner #662165), in DMEM (Thermo Fisher #11995-040) containing 10% FBS (Thermo Fisher #26140-079), 1% MEM NEAA (Thermo Fisher #11140-050), 1% GlutaMax (Thermo Fisher #35050-061), and 1% Penicillin Streptomycin (Thermo Fisher #15140-122). PC-3 cells were incubated at 37° C., 5% CO2 for 24 h and then starved for 3 h in serum-free medium. Test compounds were serially diluted to produce an 8-point dose curve in fresh serum-free medium to a final concentration of 0.3% DMSO (vehicle) and added to the cells and incubated for 1 h. Cells were then stimulated with 100 ng/mL recombinant human HGF (R&D Systems #294-HG-250) for 10 min, washed with cold PBS, and immediately lysed with 130 μL of cold IX lysis buffer [20 mM Tris, 137 mM sodium chloride, 2 mM EDTA, 10% glycerol, 1% NP-40 alternative, 1 mM activated sodium orthovanadate, 1 mM PefaBloc SC (Sigma-Aldrich #11429868001), protease/phosphatase inhibitor tablet (Thermo Fisher #A32959)]. Lysates were clarified by centrifugation and 100 μL/well added into the PathScan phospho-Met (panTyr) Sandwich ELISA (Cell Signaling Technology #7333). Assay was performed according to manufacturer's instructions. Positive control wells (100% activity) contained HGF-stimulated, DMSO-treated cell lysates. Negative control wells (0% activity) contained HGF-stimulated, reference inhibitor-treated cell lysates. IC50 values were calculated by nonlinear regression analysis using a 4-parameter logistic curve fit in ActivityBase XL (IDBS).

A further test deals with AXL (Homo sapiens (Human), UniProt P30530). Description: AXL autophosphorylation ELISA in A-172 cells. The settings on record: cellular, Gas6-stimulated, phospho-AXL ELISA. Here is the method:
A-172 glioblastoma cells (ATCC #CRL-1620) were seeded at 2.5×10^5 cells/well onto 24-well plates (Greiner #662165), in DMEM (Thermo Fisher #11995-040) containing 10% FBS (Thermo Fisher #26140-079), 1% MEM NEAA (Thermo Fisher #11140-050), 1% GlutaMax (Thermo Fisher #35050-061), and 1% Penicillin Streptomycin (Thermo Fisher #15140-122). A-172 cells were incubated at 37° C., 5% CO2 for 24 h and then starved for 24 h in serum-free medium. Test compounds were serially diluted to produce an 8-point dose curve in fresh serum-free medium to a final concentration of 0.3% DMSO (vehicle) and added to the cells and incubated for 1 h. Cells were then stimulated with 1 μg/mL recombinant human Gas6 (R&D Systems #885-GSB-500) for 15 min, washed with cold PBS, and immediately lysed with 150 μL of cold IX lysis buffer [20 mM Tris, 137 mM sodium chloride, 2 mM EDTA, 10% glycerol, 1% NP-40 alternative, 1 mM activated sodium orthovanadate, 1 mM PefaBloc SC (Sigma-Aldrich #11429868001), protease/phosphatase inhibitor tablet (Thermo Fisher #A32959)]. Lysates were collected and 100 μL/well added into the human phospho-AXL Duo Set IC ELISA (R&D Systems #DYC2228-2). Assay was performed according to manufacturer's instructions and sample phospho-AXL concentrations were extrapolated using human phospho-AXL control (R&D Systems #841645) as a standard. Positive control wells (100% activity) contained Gas6-stimulated, DMSO-treated cell lysates. Negative control wells (0% activity) contained Gas6-stimulated, reference inhibitor-treated cell lysates. IC50 values were calculated by nonlinear regression analysis using a 4-parameter logistic curve fit in ActivityBase XL (IDBS).

Chain of AXL (P30530 26-894): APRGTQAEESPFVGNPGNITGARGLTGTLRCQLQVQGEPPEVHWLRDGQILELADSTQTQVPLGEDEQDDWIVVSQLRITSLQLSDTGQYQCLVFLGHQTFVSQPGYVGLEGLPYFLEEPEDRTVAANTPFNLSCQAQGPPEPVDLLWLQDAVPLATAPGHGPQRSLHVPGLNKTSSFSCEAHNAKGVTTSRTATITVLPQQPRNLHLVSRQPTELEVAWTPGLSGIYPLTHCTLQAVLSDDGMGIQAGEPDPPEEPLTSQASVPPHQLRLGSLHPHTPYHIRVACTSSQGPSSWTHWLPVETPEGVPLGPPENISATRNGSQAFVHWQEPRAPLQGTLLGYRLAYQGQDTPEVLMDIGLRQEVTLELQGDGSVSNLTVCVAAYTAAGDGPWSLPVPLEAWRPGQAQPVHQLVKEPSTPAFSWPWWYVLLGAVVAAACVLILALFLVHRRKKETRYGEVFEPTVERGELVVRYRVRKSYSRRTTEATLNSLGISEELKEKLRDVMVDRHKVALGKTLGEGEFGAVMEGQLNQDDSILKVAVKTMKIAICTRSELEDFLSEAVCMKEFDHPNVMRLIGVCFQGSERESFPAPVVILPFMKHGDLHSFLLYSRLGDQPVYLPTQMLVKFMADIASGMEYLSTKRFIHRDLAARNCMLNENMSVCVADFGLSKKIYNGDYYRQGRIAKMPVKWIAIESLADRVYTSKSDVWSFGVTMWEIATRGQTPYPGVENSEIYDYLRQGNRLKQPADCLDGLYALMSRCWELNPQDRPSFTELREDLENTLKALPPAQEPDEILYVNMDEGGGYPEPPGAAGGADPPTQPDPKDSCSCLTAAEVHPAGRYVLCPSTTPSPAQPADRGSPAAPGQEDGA
Chain of KDR (P35968 20-1356): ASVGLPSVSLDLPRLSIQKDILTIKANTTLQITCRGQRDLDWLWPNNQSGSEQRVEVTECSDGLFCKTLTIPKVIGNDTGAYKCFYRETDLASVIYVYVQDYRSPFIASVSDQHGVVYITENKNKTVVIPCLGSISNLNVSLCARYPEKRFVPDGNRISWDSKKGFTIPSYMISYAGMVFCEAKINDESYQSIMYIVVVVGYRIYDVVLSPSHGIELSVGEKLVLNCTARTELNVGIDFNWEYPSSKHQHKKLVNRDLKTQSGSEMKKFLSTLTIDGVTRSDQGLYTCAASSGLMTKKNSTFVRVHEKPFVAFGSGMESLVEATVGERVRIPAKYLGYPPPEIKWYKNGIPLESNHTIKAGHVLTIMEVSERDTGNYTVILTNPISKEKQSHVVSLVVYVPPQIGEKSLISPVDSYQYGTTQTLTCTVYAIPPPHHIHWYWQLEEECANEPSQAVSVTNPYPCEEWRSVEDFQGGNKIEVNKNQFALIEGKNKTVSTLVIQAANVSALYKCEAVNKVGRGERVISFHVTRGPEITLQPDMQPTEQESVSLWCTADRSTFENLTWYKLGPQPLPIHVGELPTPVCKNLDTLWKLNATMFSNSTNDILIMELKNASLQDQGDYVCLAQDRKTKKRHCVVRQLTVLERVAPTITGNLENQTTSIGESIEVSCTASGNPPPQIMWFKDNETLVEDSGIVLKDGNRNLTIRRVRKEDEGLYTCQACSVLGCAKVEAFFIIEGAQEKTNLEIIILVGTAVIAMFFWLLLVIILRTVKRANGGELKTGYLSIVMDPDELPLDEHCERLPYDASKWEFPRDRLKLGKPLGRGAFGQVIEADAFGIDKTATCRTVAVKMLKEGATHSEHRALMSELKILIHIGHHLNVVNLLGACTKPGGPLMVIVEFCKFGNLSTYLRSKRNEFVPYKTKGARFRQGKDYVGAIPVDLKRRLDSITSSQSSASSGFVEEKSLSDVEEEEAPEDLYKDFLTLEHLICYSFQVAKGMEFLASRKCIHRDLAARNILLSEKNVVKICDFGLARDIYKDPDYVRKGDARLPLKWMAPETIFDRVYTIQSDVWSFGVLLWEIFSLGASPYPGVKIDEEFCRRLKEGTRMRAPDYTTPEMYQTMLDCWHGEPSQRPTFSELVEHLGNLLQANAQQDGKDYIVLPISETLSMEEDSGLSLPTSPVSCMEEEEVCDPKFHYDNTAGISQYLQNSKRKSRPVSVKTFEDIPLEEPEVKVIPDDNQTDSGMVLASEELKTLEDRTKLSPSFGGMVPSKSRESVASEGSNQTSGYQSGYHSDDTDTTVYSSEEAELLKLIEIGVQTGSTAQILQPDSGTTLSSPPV
Chain of Met (P08581 25-1390): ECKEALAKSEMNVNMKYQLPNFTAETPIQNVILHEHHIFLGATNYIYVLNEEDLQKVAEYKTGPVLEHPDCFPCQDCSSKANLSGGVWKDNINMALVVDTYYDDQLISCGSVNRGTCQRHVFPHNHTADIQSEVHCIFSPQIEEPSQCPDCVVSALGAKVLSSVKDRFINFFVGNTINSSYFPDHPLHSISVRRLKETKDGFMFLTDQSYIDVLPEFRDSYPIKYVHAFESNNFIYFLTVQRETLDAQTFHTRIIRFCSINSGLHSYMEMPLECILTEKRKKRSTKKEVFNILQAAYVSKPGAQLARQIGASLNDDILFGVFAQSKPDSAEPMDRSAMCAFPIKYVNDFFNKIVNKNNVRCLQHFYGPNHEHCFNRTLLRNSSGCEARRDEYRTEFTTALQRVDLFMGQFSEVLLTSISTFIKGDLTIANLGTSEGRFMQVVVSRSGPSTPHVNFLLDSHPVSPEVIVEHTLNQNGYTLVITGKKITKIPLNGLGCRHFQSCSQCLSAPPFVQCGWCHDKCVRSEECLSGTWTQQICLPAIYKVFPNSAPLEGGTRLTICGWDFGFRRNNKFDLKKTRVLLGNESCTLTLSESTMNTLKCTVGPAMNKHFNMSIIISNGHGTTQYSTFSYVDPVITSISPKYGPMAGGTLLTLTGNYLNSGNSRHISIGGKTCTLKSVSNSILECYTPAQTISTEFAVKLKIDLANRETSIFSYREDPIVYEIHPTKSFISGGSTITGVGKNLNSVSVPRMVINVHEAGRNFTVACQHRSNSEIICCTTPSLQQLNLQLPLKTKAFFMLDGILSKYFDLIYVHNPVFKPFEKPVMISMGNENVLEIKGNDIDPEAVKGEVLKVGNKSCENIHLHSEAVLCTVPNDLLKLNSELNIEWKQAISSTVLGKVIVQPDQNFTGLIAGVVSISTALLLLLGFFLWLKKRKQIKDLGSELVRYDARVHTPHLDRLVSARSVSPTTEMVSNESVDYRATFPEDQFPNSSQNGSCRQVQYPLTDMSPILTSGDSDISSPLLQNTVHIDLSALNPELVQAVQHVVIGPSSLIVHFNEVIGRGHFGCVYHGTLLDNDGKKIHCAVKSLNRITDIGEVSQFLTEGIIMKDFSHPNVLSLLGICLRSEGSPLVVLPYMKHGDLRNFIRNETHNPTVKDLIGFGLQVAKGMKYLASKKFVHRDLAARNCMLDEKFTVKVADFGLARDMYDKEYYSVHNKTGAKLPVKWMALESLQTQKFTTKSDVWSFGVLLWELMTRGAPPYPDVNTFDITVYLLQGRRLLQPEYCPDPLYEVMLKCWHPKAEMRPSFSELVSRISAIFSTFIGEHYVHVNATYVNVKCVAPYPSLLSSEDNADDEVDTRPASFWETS

`COc1cc2ncnc(Oc3ccc(NC(=O)C4(C(=O)Nc5ccc(F)cc5)CC4)c(Cl)c3)c2nc1OC` [Compound 32, 1-N′-[2-chloro-4-(6,7-dimethoxypyrido[3,2-d]pyrimidin-4-yl)oxyphenyl]-1-N-(4-fluorophenyl)cyclo-propane-1,1-dicarboxamide]: the IC50 against KDR is 100 to 300 nM; on Met it was 100 to 300 nM; against AXL, 10 to 100 nM.
As for `COc1cc2ncnc(Oc3ccc(NC(=O)C4(C(=O)Nc5ccc(F)cc5)CC4)c(C)c3)c2nc1OC` [Compound 33, 1-N′-[4-(6,7-dimethoxypyrido[3,2-d]pyrimidin-4-yl)oxy-2-methylphenyl]-1-N-(4-fluorophenyl)cyclopropane-1,1-dicarboxamide], the IC50 is 100 to 300 nM on KDR, > 300 nM on Met and 100 to 300 nM against AXL.
Regarding `COc1cc(NC(=O)C2(C(=O)Nc3ccc(F)cc3)CC2)ccc1Oc1ncnc2cc(OCCCN3CCOCC3)c(OC)nc12` [Compound 74, 1-N-(4-fluorophenyl)-1-N′-[3-methoxy-4-[6-methoxy-7-(3-morpholin-4-ylpropoxy)pyrido[3,2-d]pyrimidin-4-yl]oxyphenyl]cyclopropane-1,1-dicarboxamide], the figures for the IC50 on KDR, on Met and against AXL were 10 to 100 nM, > 300 nM and 100 to 300 nM, respectively.
The like results for `COCCOc1cc2ncnc(Oc3ccc(NC(=O)C4(C(=O)Nc5ccc(F)cc5)CC4)cc3)c2nc1OC` [Compound 78, 1-N′-(4-fluorophenyl)-1-N-[4-[6-methoxy-7-(2-methoxyethoxy)pyrido[3,2-d]pyrimidin-4-yl]oxyphenyl]cyclopropane-1,1-dicarboxamide] were, in that order, ≤ 10 nM, 100 to 300 nM and 10 to 100 nM.
The like results for `Cn1cc(-c2ccc3ncnc(Oc4ccc(NC(=O)C5(C(=O)Nc6ccc(F)cc6)CC5)cc4)c3c2)cn1` [Compound 126, 1-N′-(4-fluorophenyl)-1-N-[4-[6-(1-methylpyrazol-4-yl)quinazolin-4-yl]oxyphenyl]cyclo-propane-1,1-dicarboxamide] were, in that order, > 300 nM, > 300 nM and 100 to 300 nM.
In the case of `COc1cc2nccc(Oc3cc(F)c(NC(=O)C4(C(=O)Nc5ccc(F)cc5)CC4)cc3F)c2nc1OC` [Compound 142, 1-N′-[4-[(6,7-dimethoxy-1,5-naphthyridin-4-yl)oxy]-2,5-difluorophenyl]-1-N-(4-fluorophenyl)cyclo-propane-1,1-dicarboxamide], the IC50 was ≤ 10 nM on KDR, 10 to 100 nM on Met and ≤ 10 nM against AXL.
With `COCCOc1cc2nccc(Oc3cc(F)c(NC(=O)C4(C(=O)Nc5ccc(F)cc5)CC4)cc3F)c2nc1OC` [Compound 152, 1-N′-[2,5-difluoro-4-[[6-methoxy-7-(2-methoxy-ethoxy)-1,5-naphthyridin-4-yl]oxy]phenyl]-1-N-(4-fluoro-phenyl)cyclopropane-1,1-dicarboxamide], the figures for the IC50 against KDR, at Met and against AXL were ≤ 10 nM, 10 to 100 nM and ≤ 10 nM, respectively.
As for `COc1nc2c(Oc3cc(F)c(NC(=O)C4(C(=O)Nc5ccc(F)cc5)CC4)cc3F)ccnc2cc1OCCN1CCOCC1` [Compound 153, 1-N′-[2,5-difluoro-4-[[6-methoxy-7-(2-morpholin-4-ylethoxy)-1,5-naphthyridin-4-yl]oxy]phenyl]-1-N-(4-fluorophenyl)cyclo-propane-1,1-dicarboxamide], the IC50 against KDR is ≤ 10 nM; on Met, 10 to 100 nM; against AXL it was ≤ 10 nM.
As for `O=C(Nc1ccc(F)cc1)C1(C(=O)Nc2ccc(Oc3ccnc4cc5c(nc34)OCCO5)cc2)CC1` [Compound 157, 1-N-[4-(2,3-dihydro-[1,4]dioxino[2,3-b][1,5]naphthyridin-6-yloxy)phenyl]-1-N′-(4-fluorophenyl)cyclopropane-1,1-dicarboxamide], the IC50 at KDR, at Met and against AXL was > 300 nM in each case.
In the case of `O=C(Nc1ccc(F)cc1)C1(C(=O)Nc2ccc(Oc3ccnc4cc5c(nc34)OCCO5)c(F)c2)CC1` [Compound 158, 1-N′-[4-(2,3-dihydro-[1,4]dioxino[2,3-b][1,5]naphthyridin-6-yloxy)-3-fluorophenyl]-1-N-(4-fluorophenyl)cyclo-propane-1,1-dicarboxamide], the IC50 on KDR, on Met and at AXL was > 300 nM in each case.
With `O=C(Nc1ccc(F)cc1)C1(C(=O)Nc2ccc(Oc3ccnc4cc5c(nc34)OCCO5)c(Cl)c2)CC1` [Compound 159, 1-N′-[3-chloro-4-(2,3-dihydro-[1,4]dioxino[2,3-b][1,5]naphthyridin-6-yloxy)phenyl]-1-N-(4-fluorophenyl)cyclopropane-1,1-dicarboxamide], the IC50 was > 300 nM at KDR, 100 to 300 nM at Met and > 300 nM on AXL.
Regarding `COc1cc2nccc(Oc3ccc(NC(=O)C4(C(=O)Nc5ccc(F)cc5)CC4)cc3)c2nc1C#N` [Compound 164, 1-N-[4-[(6-cyano-7-methoxy-1,5-naphthyridin-4-yl)oxy]phenyl]-1-N′-(4-fluoro-phenyl)cyclopropane-1,1-dicarboxamide], the IC50 is 100 to 300 nM on KDR, > 300 nM on Met and 100 to 300 nM at AXL.
Turning to `COc1cc2nccc(Oc3ccc(NC(=O)C4(C(=O)Nc5ccc(F)cc5)CC4)cc3F)c2nc1C#N` [Compound 165, 1-N′-[4-[(6-cyano-7-methoxy-1,5-naphthyridin-4-yl)oxy]-3-fluorophenyl]-1-N-(4-fluorophenyl)cyclo-propane-1,1-dicarboxamide], the IC50 against KDR was in the range of 100 to 300 nM; on Met, 100 to 300 nM; at AXL it was 10 to 100 nM.
As to `COc1cc2nccc(Oc3ccc(NC(=O)C4(C(=O)Nc5ccc(F)cc5)CC4)cc3Cl)c2nc1C#N` [Compound 166, 1-N′-[3-chloro-4-[(6-cyano-7-methoxy-1,5-naphthyridin-4-yl)oxy]phenyl]-1-N-(4-fluorophenyl)cyclopropane-1,1-dicarboxamide], the IC50 on KDR was 10 to 100 nM; at Met it was 100 to 300 nM; against AXL, 100 to 300 nM.
Regarding `COc1cc2nccc(Oc3ccc(NC(=O)C4(C(=O)Nc5ccc(F)cc5)CC4)cc3)c2nc1C(N)=O` [Compound 167, 1-N-[4-[(6-carbamoyl-7-methoxy-1,5-naphthyridin-4-yl)oxy]phenyl]-1-N′-(4-fluorophenyl)cyclopropane-1,1-dicarboxamide], the IC50 was > 300 nM against KDR, > 300 nM on Met and 100 to 300 nM against AXL.
